Experiments:
Test in all cases: relative viability (nuclei count vs DMSO), 5 days (fraction); higher = more cells survive
[1] = compound: C1COCCN1C2=NC(=NC3=C2OC4=C3C=CC=N4)C5=CC(=CC=C5)NC(=O)C6=CN=C(C=C6)N + COc1cc2c(Oc3ccc(NC(=O)C4(C(=O)Nc5ccc(F)cc5)CC4)cc3F)ccnc2cc1OCCCN1CCOCC1 [Foretinib] (partner 0.25 µM)
Outline: (§1)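 Relative viability divides the nuclei count in treated wells by that in vehicle wells. Lung cancer cell lines were seeded in 1536-well plates, dosed by pin tool the next day, and fixed and stained after 5 days in one step with final 0.05% Triton X-100, 1% formaldehyde and 1 ug/ml Hoechst. Dosing was a single drug or a fixed anchor-drug dose plus five library-drug doses (not always all listed) in √10 steps, and values are medians of duplicate plates imaged at 4×.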

[2] = compound: Nc1ccccc1NC(=O)c1ccc(CNC(=O)OCc2cccnc2)cc1 [Entinostat] + Cc1cc(Nc2cc(N3CCN(C)CC3)nc(Sc3ccc(NC(=O)C4CC4)cc3)n2)n[nH]1 [Tozasertib] (partner 0.1 µM)
Outline: as §1

[3] = compound: CN1CCC(CNc2ccc3ncc(-c4cccc(OC(F)(F)F)c4)n3n2)CC1 [SGI-1776] + Nc1nc2[nH]cc(CCc3ccc(C(=O)N[C@@H](CCC(=O)O)C(=O)O)cc3)c2c(=O)[nH]1 [Pemetrexed] (partner 0.2 µM)
Outline: as §1

[4] = compound: Nc1ccccc1NC(=O)c1ccc(CNC(=O)OCc2cccnc2)cc1 [Entinostat] + Nc1ncn([C@H]2C[C@H](O)[C@@H](CO)O2)c(=O)n1 [Decitabine] (partner 2 µM)
Outline: as §1

Cell Line	relative viability ([1]; first compound 0.02 µM)	relative viability ([1]; first compound 0.06325 µM)	relative viability ([1]; first compound 0.2 µM)	relative viability ([1]; first compound 0.6325 µM)	relative viability ([1]; first compound 2 µM)	relative viability ([2]; first compound 0.02 µM)	relative viability ([2]; first compound 0.06325 µM)	relative viability ([2]; first compound 0.2 µM)	relative viability ([2]; first compound 0.6325 µM)	relative viability ([2]; first compound 2 µM)	relative viability ([3]; first compound 0.08 µM)	relative viability ([3]; first compound 0.8 µM)	relative viability ([3]; first compound 2.53 µM)	relative viability ([3]; first compound 8 µM)	relative viability ([4]; first compound 0.02 µM)	relative viability ([4]; first compound 0.06325 µM)	relative viability ([4]; first compound 0.2 µM)	relative viability ([4]; first compound 0.6325 µM)	relative viability ([4]; first compound 2 µM)
NCI-H2347	1.09	0.962	0.861	1.07	0.657	0.355	0.382	0.345	0.175	0.18	0.471	0.419	0.469	0.338	0.611	0.585	0.494	0.471	0.363
201T	1.31	1.05	1.1	1.1	1.09	0.898	0.811	0.589	0.501	0.385	0.325	0.339	0.348	0.301	0.82	0.692	0.777	0.401	0.406
NCI-H1755	0.902	0.94	0.871	0.805	0.622	0.603	0.505	0.464	0.361	0.357	0.465	0.443	0.425	0.372	0.681	0.71	0.583	0.494	0.45
NCI-H596	1.13	0.813	0.893	0.709	0.616	0.76	0.93	1.14	0.621	0.503	0.442	0.51	0.505	0.461	0.9	1.11	0.869	1.01	0.66

From the supplement of paper PMC10307832
